Patent publication US20230000872A1, “TRPA1 ANTAGONIST FOR THE TREATMENT OF PAIN ASSOCIATED TO DIABETIC NEUROPATHIC PAIN” (Glenmark Pharmaceuticals S.A., priority 2014, published 2023)

Assays:
[1] = system: subjects with painful DPN and having preserved peripheral nerve function; experiment: Phase II clinical study of Compound I 250 mg BID, 4 week treatment plus 2 weeks follow up, in subjects with painful DPN and preserved peripheral nerve function (Example 2); format: in vivo, human
From the text: Example 2: A Phase II Clinical Study to Evaluate Efficacy, Safety and Tolerability of Compound I in Subjects With Painful Diabetic Neuropathy
• Objectives of this study were To assess the safety, efficacy and tolerability of Compound I in the treatment of pain associated with diabetic peripheral neuropathy (DPN) and to evaluate efficacy of Compound I administered once daily (OD) or twice daily (BID) in subjects with painful DPN and having preserved peripheral nerve function and to investigate effect of Compound I on time to sustained improvement in pain, night-time pain, intensity of pain on neuropathic pain symptoms inventory (NPSI), and sleep in subjects with painful DPN and having preserved peripheral nerve function. • This was a randomized, double-blind, placebo-controlled, parallel group, 4 week treatment followed by 2 weeks follow up study of Compound I 250 mg and placebo BID in subjects with painful DPN and having preserved peripheral nerve function. The study included a total of 136 subjects with DPN and having preserved peripheral nerve function. • Clinical Endpoints were change from baseline in mean 24-hour API score based on an 11-point pain intensity NRS at the end of week 4 and week 6 in • In ITT ([…]) population and • In subject having one or more from baseline average pain intensity (API) score of ≥5, Cold detection threshold >18° C. at baseline as determined by QST and Warm detection threshold <49° C. at baseline as determined by QST

[2] = system: subjects with painful DPN; experiment: Phase II clinical study of Compound I 250 mg BID, 4 weeks, in subjects with painful diabetic neuropathy (Example 1); format: in vivo, human; design: key to Mean API score (24-hour): 11-point pain intensity NRS (0–10); key to Night-time API Score, mean score: API score on 11-point pain intensity NRS (0–10); conditions: for Sleep interference score, mean score: 11-point scale; for API Score, mean score: 11-point NRS; for % subject population with >30% Reduction from baseline API Score / % subject population with >50% Reduction from baseline API Score: end of 4 week treatment
From the text: Example 1: A Phase II Clinical Study to Evaluate Efficacy, Safety and Tolerability of Compound I in Subjects With Painful Diabetic Neuropathy
• To assess the efficacy of Compound I in the treatment of pain associated with diabetic peripheral neuropathy (DPN). • To evaluate the safety and tolerability of Compound I administered once daily (OD) or twice daily (BID) in subjects with painful DPN. • To investigate effect of Compound I on time to sustained improvement in pain, night-time pain, intensity of pain on neuropathic pain symptoms inventory (NPSI), and sleep in subjects with painful DPN. • To evaluate number of subjects who are responders on the […] of Change (PGIC) Questionnaire, Clinician Global Impression of Change (CGIC) Questionnaire; and number of subjects who achieve various levels of percent reduction in pain. • To investigate the pharmacokinetics (PK) of Compound I in subjects with DPN • To investigate effect of Compound I on the use of rescue medication (ibuprofen 400 mg to 600 mg four times a day or paracetamol 500 mg to 1000 mg two to three times a day) in subjects with painful DPN • To investigate effect of Compound I in subjects with painful DPN who have mechanical hyperalgesia and/or cold allodynia.
This was a multi-center, randomized, double-blind, placebo-controlled, parallel group, 4 week study of Compound I 250 mg BID in subjects with painful DPN. The study included a total of 138 subjects with DPN, randomized in a 1:1 ratio into 250 mg BID Compound I or Placebo. The study was conducted for a total period of 9 weeks as: up to a 2-week screening/washout period, a 1-week placebo-run in period, 4 weeks of treatment period and 2 weeks of follow-up period.
• Men and women (post-menopausal/surgically sterile only) aged between 18-75 (both inclusive) years • Subjects having diabetes mellitus (type 1 or 2) with a distal symmetric chronic sensorimotor painful peripheral neuropathy • A history of DPN pain for at least 6 months and no greater than 5 years. • DN4 “Douleur Neuropathique en 4” questions score of ≥4 • A baseline 24-hour average daily pain intensity score ≥4 and <9 as measured on a 11-point pain intensity NRS (numeric rating scale) • Subjects having stable glycemic control for at least one or two or three months prior to randomization having HbAlc (Glycosylated Hemoglobin) <8% • Subjects detected to have mechanical hyperalgesia and/or cold allodynia (detected with appropriate methodology)
Study medications were: • Placebo matching 250 mg Compound I during the placebo run-in period was taken orally BID in a fed state (30 minutes after breakfast/dinner) every day for day −7 to day −1 during Run-in period. The time interval between 2 consecutive doses must be 12 hours±60 min • 250 mg Compound I potassium granules or matching placebo during day-1 to day-28 treatment period. The time interval between 2 consecutive doses was 12 hours±60 min. • Reference therapy: Placebo to match investigational product, administered BID.
Clinical Endpoints were: • Change from baseline to end of treatment (i.e., baseline to end of week 4) in the mean 24-hour API score based on an 11-point pain intensity NRS • Change from baseline at the end of week 1, 2, 3, 4 and 6 in: • Mean night-time API (average pain intensity) Score (subject diary): night-time is defined as the time between going to bed at night and rising in the morning • Mean night-time worst pain intensity Score (subject diary): worst pain is defined as the subject's assessment of their worst pain intensity for the time period • Mean sleep interference Score (subject diary): A 11-point scale that asks subjects to select the score that best describes how much the pain interfered with sleep during the past 24 hours.

[3] = subjects with one or more of baseline API score ≥5, Cold detection threshold >18° C., Warm detection threshold <49° C. (QST), Week 4
[4] = subjects with one or more of baseline API score ≥5, Cold detection threshold >18° C., Warm detection threshold <49° C. (QST), Week 6
[5] = Sub-group: Hypersensitivity to cold stimulus and/or mechanical stimulus, Week 4
[6] = Sub-group: Moderate to severe pain (NRS score 5-8) and hypersensitivity to cold stimulus and/or mechanical stimulus, Week 4
[7] = Sub-group: Moderate to severe pain (NRS score 5-8) and preserved peripheral sensory neurons, Week 4
[8] = Sub-group: Moderate to severe pain (NRS score 5-8), Week 4
[9] = Sub-group: Preserved peripheral sensory neurons (non-denervation by QST), Week 4
[10] = Week 0 (baseline), 250 mg BID oral
[11] = Week 4 vs baseline, 250 mg BID oral
[12] = Sub-group: Hypersensitivity to cold stimulus and/or mechanical stimulus
[13] = Sub-group: Moderate to severe pain (NRS score 5-8)
[14] = Sub-group: Moderate to severe pain (NRS score 5-8) and hypersensitivity to cold stimulus and/or mechanical stimulus
[15] = Sub-group: Moderate to severe pain (NRS score 5-8) and preserved peripheral sensory neurons
[16] = Sub-group: preserved peripheral sensory neurons

Structure (SMILES): Cn1c(=O)c2c(CC(=O)Nc3nc(-c4ccc(F)c(C(F)(F)F)c4F)cs3)csc2n(C)c1=O [Compound I, N-{4-[2,4-difluoro-3-(trifluoromethyl)phenyl]-1,3-thiazol-2-yl}-2-(1,3-dimethyl-2,4-dioxo-1,2,3,4-tetrahydrothieno[2,3-d]pyrimidin-5-yl)acetamide]
- Mean API score ([1]; ITT population, Week 0 (baseline)): 6.0
- API score % Reduction from baseline ([1]; ITT population, Week 4): 32.16%
- Mean API score ([1]; ITT population, Week 4): 4.07
- API score % Reduction from baseline ([1]; ITT population, Week 6): 40.16%
- Mean API score ([1]; ITT population, Week 6): 3.59
- Mean API score ([1]; subjects with one or more of baseline API score ≥5, Cold detection threshold >18° C., Warm detection threshold <49° C. (QST), Week 0 (baseline)): 5.0
- API score % Reduction from baseline [1, 3]: 49.6%
- Mean API score [1, 3]: 2.52
- API score % Reduction from baseline [1, 4]: 66.2%
- Mean API score [1, 4]: 1.69
- Onset of Sustained improvement in 24-hour API Score ([2]; 250 mg BID oral): Score is achieved in 18 days
- Mean API score (24-hour) ([2]; Sub-group: Hypersensitivity to cold stimulus and/or mechanical stimulus, Week 0 (baseline)): 6.1
- API score % Reduction from baseline [2, 5]: 32.78%
- Mean API score (24-hour) [2, 5]: 4.1
- Mean API score (24-hour) ([2]; Sub-group: Moderate to severe pain (NRS score 5-8) and hypersensitivity to cold stimulus and/or mechanical stimulus, Week 0 (baseline)): 6.5
- API score % Reduction from baseline [2, 6]: 36.92%
- Mean API score (24-hour) [2, 6]: 4.1
- Mean API score (24-hour) ([2]; Sub-group: Moderate to severe pain (NRS score 5-8) and preserved peripheral sensory neurons, Week 0 (baseline)): 6.4
- API score % Reduction from baseline [2, 7]: 35.93%
- Mean API score (24-hour) [2, 7]: 4.1
- Mean API score (24-hour) ([2]; Sub-group: Moderate to severe pain (NRS score 5-8), Week 0 (baseline)): 6.3
- API score % Reduction from baseline [2, 8]: 33.33%
- Mean API score (24-hour) [2, 8]: 4.2
- Mean API score (24-hour) ([2]; Sub-group: Preserved peripheral sensory neurons (non-denervation by QST), Week 0 (baseline)): 6.2
- API score % Reduction from baseline [2, 9]: 33.33%
- Mean API score (24-hour) [2, 9]: 4.1
- Mean daily dose of rescue medication [2, 10]: 425 mg
- Night-time API Score, mean score [2, 10]: 5.1
- Night-time Worst pain intensity Score, mean score [2, 10]: 5.3
- Sleep interference score, mean score [2, 10]: 4.5
- API Score, mean score ([2]; Week 0, 250 mg BID oral): 6.0
- Mean daily dose of rescue medication ([2]; Week 4, 250 mg BID oral): 111 mg
- Night-time API Score, mean score ([2]; Week 4, 250 mg BID oral): 3.4
- Night-time Worst pain intensity Score, mean score ([2]; Week 4, 250 mg BID oral): 3.5
- API Score, mean score ([2]; Week 4, 250 mg BID oral): 4.1
- Sleep interference score, mean score ([2]; Week 4, 250 mg BID oral): 2.7
- API Score, % Reduction ([2]; Week 4 vs Week 0, 250 mg BID oral): 31.66%
- Change in mean daily dose of rescue medication, % Reduction [2, 11]: 73.8%
- Night-time API Score, % Reduction [2, 11]: 33.33%
- Night-time Worst pain intensity Score, % Reduction [2, 11]: 33.96%
- Sleep interference score, % Reduction [2, 11]: 40%
- % subject population with >30% Reduction from baseline API Score [2, 12]: 59.1%
- % subject population with >50% Reduction from baseline API Score [2, 12]: 36.4%
- % subject population with >30% Reduction from baseline API Score [2, 13]: 58.6%
- % subject population with >50% Reduction from baseline API Score [2, 13]: 34.5%
- % subject population with >30% Reduction from baseline API Score [2, 14]: 66.7%
- % subject population with >50% Reduction from baseline API Score [2, 14]: 44.4%
- % subject population with >30% Reduction from baseline API Score [2, 15]: 56.7%
- % subject population with >50% Reduction from baseline API Score [2, 15]: 40.0%
- % subject population with >30% Reduction from baseline API Score [2, 16]: 52.9%
- % subject population with >50% Reduction from baseline API Score [2, 16]: 35.3%
